What was measured:
[1] = target: KRas WT (Homo sapiens, UniProt P01116); test: KRas binding assay (TR-FRET displacement), KRas WT; details: single point, 10 nM compound
[2] = target: KRas G12A (Homo sapiens, UniProt P01116, G12A); assay type: binding; details: single point, 10 nM compound, read-out: Binding to KRas (% inhibition at 10 nM) G12A
[3] = target: KRas G12C (Homo sapiens, UniProt P01116, G12C); assay type: binding; details: single point, 10 nM compound, read-out: Binding to KRas (% inhibition at 10 nM) G12C
[4] = target: KRas G12S (Homo sapiens, UniProt P01116, G12S); assay type: binding; details: single point, 10 nM compound, read-out: Binding to KRas (% inhibition at 10 nM) G12S
[5] = target: KRas G13D (Homo sapiens, UniProt P01116, G13D); assay type: binding; details: single point, 10 nM compound, read-out: Binding to KRas (% inhibition at 10 nM) G13D
[6] = target: KRas Q61H (Homo sapiens, UniProt P01116, Q61H); test: KRas binding assay (TR-FRET displacement), KRas Q61H; details: single point, 10 nM compound
[7] = test system: MKN1 cells; test: Inhibition of KRas-mediated phosphorylation of ERK (Cisbio HTRF pERK), MKN1 cells; assay type: cell-based; details: Homo sapiens, MKN-1, 3 hour compound incubation, Cisbio pERK HTRF
How it was run: (§1)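 Phospho-ERK signal measured by HTRF after cells had been plated at 6,000/well in RPMI supplemented with 10% FBS on day 1.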

[8] = test system: PSN1 cells; test: Inhibition of KRas-mediated phosphorylation of ERK (Cisbio HTRF pERK), PSN1 cells; assay type: cell-based; details: Homo sapiens, PSN1, 3 h, 3 hour compound incubation, Cisbio pERK HTRF
How it was run: as §1

[9] = test system: ASPC1 cells; test: Inhibition of KRas-mediated phosphorylation of ERK (Cisbio HTRF pERK), ASPC1 cells; assay type: cell-based; details: Homo sapiens, AsPC-1 cells; for IC50: ASPC1, 3 h, 3 hr compound incubation, Cisbio pERK HTRF
[10] = test system: H727 cells; test: Inhibition of KRas-mediated phosphorylation of ERK (Cisbio HTRF pERK), H727 cells; assay type: cell-based; details: Homo sapiens; for IC50: NCI-H727, 3 h, 3 hr compound incubation, Cisbio pERK HTRF
[11] = test system: A549 cells; test: Inhibition of KRas-mediated phosphorylation of ERK (Cisbio HTRF pERK), A549 cells; assay type: cell-based; details: Homo sapiens; for IC50: A549, 3 h, 3 hr compound incubation, Cisbio pERK HTRF; for inhibition at 0.1 µM: single point at 100 nM, 3 hrs compound incubation
[12] = test system: H460 cells; test: Inhibition of KRas-mediated phosphorylation of ERK (Cisbio HTRF pERK), H460 cells; assay type: cell-based; details: Homo sapiens; for IC50: NCI-H460, 3 h, 3 hr compound incubation, Cisbio pERK HTRF
[13] = test system: HCT116 cells; test: Inhibition of KRas-mediated phosphorylation of ERK (Cisbio HTRF pERK), HCT116 cells; assay type: cell-based; details: Homo sapiens; for IC50: HCT-116, 3 h, 3 hr compound incubation, Cisbio pERK HTRF
[14] = test system: H358 cells; test: Inhibition of KRas-mediated phosphorylation of ERK (Cisbio HTRF pERK), H358 cells; assay type: cell-based; details: Homo sapiens; for IC50: NCI-H358, 3 h, 3 hr compound incubation, Cisbio pERK HTRF; for inhibition at 0.1 µM: NCI-H358, single point at 100 nM, 3 hrs compound incubation
[15] = target: KRas G12D (Homo sapiens, UniProt P01116, G12D); test: biochemical; details: Binding to KRas (IC50 nM) G12D, TR-FRET displacement, KRas G12D
[16] = target: KRas G12R (Homo sapiens, UniProt P01116, G12R); test: biochemical; details: Binding to KRas (IC50 nM) G12R, TR-FRET displacement, KRas G12R
[17] = target: KRas G12V (Homo sapiens, UniProt P01116, G12V); test: biochemical; details: Binding to KRas (IC50 nM) G12V, TR-FRET displacement, KRas G12V
KRas G12V, sequence (P01116 1-169 isoform P01116-2 G12V): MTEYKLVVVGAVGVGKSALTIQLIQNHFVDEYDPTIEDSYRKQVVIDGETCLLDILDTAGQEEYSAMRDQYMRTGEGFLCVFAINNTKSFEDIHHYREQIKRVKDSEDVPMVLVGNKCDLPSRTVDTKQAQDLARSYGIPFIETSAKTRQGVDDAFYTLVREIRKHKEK

KRas Q61H, sequence (P01116 1-169 isoform P01116-2 Q61H): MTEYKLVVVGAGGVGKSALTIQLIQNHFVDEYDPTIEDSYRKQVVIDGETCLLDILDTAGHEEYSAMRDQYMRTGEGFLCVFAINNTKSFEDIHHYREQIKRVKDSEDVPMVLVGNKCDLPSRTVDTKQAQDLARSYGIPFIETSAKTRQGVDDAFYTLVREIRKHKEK
KRas G12C, sequence (P01116 1-169 isoform P01116-2 G12C): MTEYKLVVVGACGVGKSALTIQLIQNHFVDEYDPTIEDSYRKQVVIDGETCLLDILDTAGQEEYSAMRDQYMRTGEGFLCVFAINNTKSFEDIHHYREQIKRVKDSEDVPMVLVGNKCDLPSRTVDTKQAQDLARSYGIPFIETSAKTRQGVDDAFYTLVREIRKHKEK
KRas G13D, sequence (P01116 1-169 isoform P01116-2 G13D): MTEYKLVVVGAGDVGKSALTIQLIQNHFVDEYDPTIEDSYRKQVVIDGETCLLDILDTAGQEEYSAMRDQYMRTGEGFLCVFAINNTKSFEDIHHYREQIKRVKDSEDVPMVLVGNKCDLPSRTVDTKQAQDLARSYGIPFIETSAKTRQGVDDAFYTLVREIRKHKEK
KRas G12A, sequence (P01116 1-169 isoform P01116-2 G12A): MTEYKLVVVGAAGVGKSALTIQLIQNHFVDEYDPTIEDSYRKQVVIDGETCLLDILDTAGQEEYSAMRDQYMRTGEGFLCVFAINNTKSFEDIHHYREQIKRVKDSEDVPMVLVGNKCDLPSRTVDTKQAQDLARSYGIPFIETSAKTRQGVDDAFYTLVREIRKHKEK
KRas WT, sequence (P01116 1-169 isoform P01116-2): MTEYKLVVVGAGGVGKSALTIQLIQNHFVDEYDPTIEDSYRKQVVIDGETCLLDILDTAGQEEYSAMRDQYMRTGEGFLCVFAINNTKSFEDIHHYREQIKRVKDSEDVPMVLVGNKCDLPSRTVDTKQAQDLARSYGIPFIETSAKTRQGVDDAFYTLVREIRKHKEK
KRas G12R, sequence (P01116 1-169 isoform P01116-2 G12R): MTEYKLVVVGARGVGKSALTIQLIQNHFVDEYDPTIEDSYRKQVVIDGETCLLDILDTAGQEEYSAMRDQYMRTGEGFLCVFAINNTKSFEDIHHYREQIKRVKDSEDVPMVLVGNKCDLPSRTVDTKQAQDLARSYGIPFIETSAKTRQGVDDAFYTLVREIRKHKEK
KRas G12S, sequence (P01116 1-169 isoform P01116-2 G12S): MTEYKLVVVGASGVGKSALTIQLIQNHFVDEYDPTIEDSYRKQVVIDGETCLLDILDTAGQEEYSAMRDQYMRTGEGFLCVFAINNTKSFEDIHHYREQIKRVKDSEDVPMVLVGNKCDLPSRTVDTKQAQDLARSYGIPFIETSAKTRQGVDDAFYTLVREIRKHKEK
KRas G12D, sequence (P01116 1-169 isoform P01116-2 G12D): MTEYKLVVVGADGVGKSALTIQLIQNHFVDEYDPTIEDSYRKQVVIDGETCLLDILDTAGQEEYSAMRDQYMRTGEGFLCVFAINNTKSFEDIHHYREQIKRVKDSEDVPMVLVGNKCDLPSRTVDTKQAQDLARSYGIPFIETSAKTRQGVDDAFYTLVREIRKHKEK

inhibition at 0.01 µM [1] [%] | inhibition at 0.01 µM [2] [%] | inhibition at 0.01 µM [3] [%] | inhibition at 0.01 µM [4] [%] | inhibition at 0.01 µM [5] [%] | inhibition at 0.01 µM [6] [%] | IC50 [7] [nM] | IC50 [8] [nM] | IC50 [9] [nM] | IC50 [10] [nM] | IC50 [11] [nM] | IC50 [12] [nM] | IC50 [13] [nM] | IC50 [14] [nM] | IC50 [15] [nM] | IC50 [16] [nM] | IC50 [17] [nM] | Structure (SMILES) | inhibition at 0.1 µM [11] [%] | inhibition at 0.1 µM [14] [%] | other results
98 | 99 | 100 | 99 | 98 | 99 | 4.2 | 2100 | 2 | 3 | 5 | 24 | 40 | 1 | < 2 | < 2 | < 2 | CCNC(=O)c1nn2c(c1Cl)CN(c1nc(OC[C@@]34CCCN3C[C@H](F)C4)nc3c1CCN(c1cc(O)cc4ccc(F)c(CC)c14)C3)CCC2 [Example 367, 3-chloro-N-ethyl-5-(7-(8-ethyl-7-fluoro-3-hydroxynaphthalen-1-yl)-2-(((2R,7aS)-2-fluorohexahydro-1H-pyrrolizin-7a-yl)methoxy)-5,6,7,8-tetrahydropyrido[3,4-d]pyrimidin-4-yl)-5,6,7,8-tetrahydro-4H-pyrazolo[1,5-a][1,4]diazepine-2-carboxamide] | 85 | 101 | inhibition at 0.1 µM ([12]; NCI-H460, single point at 100 nM, 3 hrs compound incubation): 83%; inhibition at 0.1 µM ([13]; HCT-116, single point at 100 nM, 3 hrs compound incubation): 62%
97 | 97 | 99 | 99 | 98 | 98 | 6.9 | > 10000 | 9 | 20 | 36 | 43 | 132 | 6 | < 2 | < 2 | < 2 | CCc1c(F)ccc2cc(O)cc(N3CCc4c(nc(OC[C@@]56CCCN5C[C@H](F)C6)nc4N4CCCn5nc(C(=O)N(C)C)c(OC)c5C4)C3)c12 [Example 370, 5-(7-(8-ethyl-7-fluoro-3-hydroxynaphthalen-1-yl)-2-(((2R,7aS)-2-fluorohexahydro-1H-pyrrolizin-7a-yl)methoxy)-5,6,7,8-tetrahydropyrido[3,4-d]pyrimidin-4-yl)-3-methoxy-N,N-dimethyl-5,6,7,8-tetrahydro-4H-pyrazolo[1,5-a][1,4]diazepine-2-carboxamide] | 65 | 97 | –
86 | 91 | 98 | 96 | 87 | 89 | 9.9 | 5080 | 3 | 5 | 9 | 35 | 187 | 3 | 2 | < 2 | < 2 | CCc1c(F)ccc2cc(O)cc(N3CCc4c(nc(OC[C@@]56CCCN5C[C@H](F)C6)nc4N4CCCn5nc(C(=O)NC(C)C)c(C)c5C4)C3)c12 [Example 371, 5-(7-(8-ethyl-7-fluoro-3-hydroxynaphthalen-1-yl)-2-(((2R,7aS)-2-fluorohexahydro-1H-pyrrolizin-7a-yl)methoxy)-5,6,7,8-tetrahydropyrido[3,4-d]pyrimidin-4-yl)-N-isopropyl-3-methyl-5,6,7,8-tetrahydro-4H-pyrazolo[1,5-a][1,4]diazepine-2-carboxamide] | 79 | 101 | –
98 | 99 | 99 | 99 | 98 | 99 | 3.1 | 2010 | 2 | 5 | 10 | 11 | 54 | 2 | < 2 | < 2 | < 2 | CCc1c(C(=O)N(C)C)nn2c1CN(c1nc(OC[C@@]34CCCN3C[C@H](F)C4)nc3c1CCN(c1cc(O)cc4ccc(F)c(CC)c14)C3)CCC2 [Example 372, 3-ethyl-5-(7-(8-ethyl-7-fluoro-3-hydroxynaphthalen-1-yl)-2-(((2R,7aS)-2-fluorohexahydro-1H-pyrrolizin-7a-yl)methoxy)-5,6,7,8-tetrahydropyrido[3,4-d]pyrimidin-4-yl)-N,N-dimethyl-5,6,7,8-tetrahydro-4H-pyrazolo[1,5-a][1,4]diazepine-2-carboxamide] | 72 | 104 | inhibition at 0.1 µM ([9]; ASPC1, single point at 100 nM, 3 hrs compound incubation): 95%; inhibition at 0.1 µM ([10]; NCI-H727, single point at 100 nM, 3 hrs compound incubation): 76%
96 | 96 | 99 | 99 | 96 | 97 | 6.6 | 4150 | 2 | 4 | 11 | 14 | 48 | 2 | < 2 | < 2 | < 2 | CCc1c(F)ccc2cc(O)cc(N3CCc4c(nc(OC[C@@]56CCCN5C[C@H](F)C6)nc4N4CCCn5nc(C(=O)N(C)CCOCCOC)cc5C4)C3)c12 [Example 373, 5-(7-(8-ethyl-7-fluoro-3-hydroxynaphthalen-1-yl)-2-(((2R,7aS)-2-fluorohexahydro-1H-pyrrolizin-7a-yl)methoxy)-5,6,7,8-tetrahydropyrido[3,4-d]pyrimidin-4-yl)-N-(2-(2-methoxyethoxy)ethyl)-N-methyl-5,6,7,8-tetrahydro-4H-pyrazolo[1,5-a][1,4]diazepine-2-carboxamide] | 72 | 93 | –
95 | 96 | 99 | 99 | 94 | 96 | 13.5 | 4820 | 4 | 6 | 25 | 35 | 105 | 5 | < 2 | < 2 | < 2 | CCc1c(F)ccc2cc(O)cc(N3CCc4c(nc(OC[C@@]56CCCN5C[C@H](F)C6)nc4N4CCCn5nc(C(=O)NCCOCCOC)cc5C4)C3)c12 [Example 374, 5-(7-(8-ethyl-7-fluoro-3-hydroxynaphthalen-1-yl)-2-(((2R,7aS)-2-fluorohexahydro-1H-pyrrolizin-7a-yl)methoxy)-5,6,7,8-tetrahydropyrido[3,4-d]pyrimidin-4-yl)-N-(2-(2-methoxyethoxy)ethyl)-5,6,7,8-tetrahydro-4H-pyrazolo[1,5-a][1,4]diazepine-2-carboxamide] | 57 | 99 | –
